Reference: paper PMC7449217, “The FDA-Approved Drug Nelfinavir Inhibits Lytic Cell-Free but Not Cell-Associated Nonlytic Transmission of Human Adenovirus” (Antimicrobial Agents and Chemotherapy, 2020)
pEC50: −log10 of the molar value. Where a name gives a salt, the structure may show the parent alone.

Key:
Type in all cases: cell-based, human adenovirus
HAdV-C2-dE3B-GFP [1] = assay: microbe, parasite or virus in culture; settings: for pEC50: Human adenovirus sp.
Procedure: (§1) Per 96-well plate, 15,000 A549 cells, 10,000 HeLa cells, 30,000 HBECs, 30,000 HCE cells, or 30,000 CMT-93 cells were seeded in 100 μl of the respective supplemented medium and allowed to settle for 1 h at room temperature (RT) prior to cell culture incubation at 37°C with 5% CO2 and 95% humidity. The following day, the medium was replaced with 50 μl of the respective virus stock dilution giving rise to 5 to 50 plaques per 96-well plate. Fifty microliters of nelfinavir to obtain a 0.1 to 50 μM final concentration or the DMSO solvent control was also added, both in supplemented medium. For each experiment, a noninfected, treated control was performed. For uphill plaque assays, the medium volume was increased to 150 μl with identical virus and drug concentrations. For wash-in/washout experiments, the virus was incubated on cells in supplemented medium for 1 h at 37°C, cells were washed with PBS, and a 100-μl drug dilution in supplemented medium was added. All experiments were performed in four technical replicates or as indicated. Cells were incubated under standard cell culture conditions. At the indicated times postinfection, the cells were fixed, and the nuclei were stained for 1 h at RT by the addition of 33 μl 16% (wt/vol) paraformaldehyde (PFA) and 4 μg/ml Hoechst 33342 (Sigma-Aldrich, St. Louis, MO, USA) in PBS. Cells were washed three times with PBS and stored in PBS supplemented with 0.02% N3 for infections with viruses harboring a GFP transgene. For wild-type (wt) viruses, cells were quenched in PBS supplemented with 50 mM NH4Cl, permeabilized using 0.2% (vol/vol) Triton X-100 in PBS, and blocked with 0.5% (wt/vol) bovine serum albumin (BSA) in PBS. Cells were incubated with 381.7 ng/ml mouse anti-HAdV hexon protein antibody (Mab8052; Sigma-Aldrich, St. Louis, MO, USA) and subsequently stained using 2 μg/ml goat anti-mouse-Alexa Fluor 594 (catalog number A21203 or A32742; Thermo Fisher Scientific, Waltham, MA, USA). Plates were imaged on either an IXM-XL or an IXM-C automated high-throughput fluorescence microscope (Molecular Devices, San Jose, CA, USA) using a 4× objective in wide-field mode. Hoechst staining was recorded in the 4′,6-diamidino-2-phenylindole (DAPI) channel, the fluorescein isothiocyanate (FITC)/GFP channel was acquired for viral GFP, and the tetramethyl rhodamine isothiocyanate (TRITC)/Texas Red channel was acquired for hexon immunofluorescence staining.
(§2) The infection phenotype for each well was quantified using Plaque2.0 ([101]). The number of plaques was determined based on the infection signal (viral GFP or hexon immunofluorescence staining). Nuclei stained with Hoechst were segmented by using CellProfiler ([178]). Infected nuclei were classified based on the median infection signal per nucleus in CellProfiler. Data were plotted, and the EC50 (infected and treated cells), the TC50 (noninfected, treated cells), as well as the corresponding standard errors (SE) were determined using curve fitting in GraphPad (version 8.1.2; GraphPad Software, Inc.) using three-parameter inhibitor concentration-versus-response nonlinear regression. The mean TI50 was calculated as the […] ratio of the means. The TI50 SE was calculated by error propagation.

HAdV-B11 = assay: fluorescence-based plaque-forming assay, A549 cells; settings: for TI50 (TC50/IC50): HAdV-B11 in A549, 3 dpi, Hexon
Procedure: as §1, §2

HAdV-B14a = assay: as above
Procedure: as §1, §2

HAdV-B14 = assay: as above
Procedure: as §1, §2

HAdV-B16 = assay: as above
Procedure: as §1, §2

HAdV-B21a = assay: as above
Procedure: as §1, §2

HAdV-B34 = assay: as above
Procedure: as §1, §2

HAdV-B7 = assay: as above; settings: for TI50 (TC50/IC50): HAdV-B7 in A549, 4 dpi, Hexon
Procedure: as §1, §2

HAdV-C1 = assay: as above
Procedure: as §1, §2

HAdV-C2-dE3B-GFP-dADP [2] = assay: as above; settings: for pEC50: Human adenovirus sp., plaque numbers
Procedure: as §1, §2

HAdV-C5 = assay: as above
Procedure: as §1, §2

HAdV-C6 = assay: as above
Procedure: as §1, §2

HAdV-C2-dE3B-GFP-dADP [3] = assay: fluorescence-based plaque-forming assay, HeLa cells; settings: for TI50 (TC50/IC50): HAdV-C2-dE3B-GFP-dADP in HeLa, 5 dpi, GFP
Procedure: as §1, §2

HAdV-A31 = assay: fluorescence-based plaque-forming assay, HCE cells; settings: HAdV-A31 in HCE
Procedure: as §1, with “Cells were incubated with 381.7 ng/ml mouse anti-HAdV hexon protein antibody (Mab8052; Sigma-Aldrich, St. Louis, MO, USA) and subsequently stained using 2 μg/ml goat anti-mouse-Alexa Fluor 594 (catalog number A21203 or A32742; Thermo Fisher Scientific, Waltham, MA, USA).” left out
as §2, with “Nuclei stained with Hoechst were segmented by using CellProfiler ([178]). Infected nuclei were classified based on the median infection signal per nucleus in CellProfiler.” left out

HAdV-C2-dE3B-GFP [4] = assay: fluorescence-based plaque-forming assay, HCE cells
Procedure: as §1, with “Cells were incubated with 381.7 ng/ml mouse anti-HAdV hexon protein antibody (Mab8052; Sigma-Aldrich, St. Louis, MO, USA) and subsequently stained using 2 μg/ml goat anti-mouse-Alexa Fluor 594 (catalog number A21203 or A32742; Thermo Fisher Scientific, Waltham, MA, USA).” left out
as §2, with “Nuclei stained with Hoechst were segmented by using CellProfiler ([178]). Infected nuclei were classified based on the median infection signal per nucleus in CellProfiler.” left out

## Cc1c(O)cccc1C(=O)N[C@@H](CSc1ccccc1)[C@H](O)CN1C[C@H]2CCCC[C@H]2C[C@H]1C(=O)NC(C)(C)C [Nelfinavir, Nelfinavir mesylate]
HAdV-C2-dE3B-GFP [1]; HAdV-C2-dE3B-GFP in A549, 3 dpi, GFP
  TI50 (TC50/IC50): 66.80
HAdV-C2-dE3B-GFP [1]; HAdV-C2-dE3B-GFP in A549, 3 dpi, GFP, listed as nelfinavir
  TI50 (TC50/IC50): 66.8
HAdV-C2-dE3B-GFP [1]; HAdV-C2-dE3B-GFP in A549, 4 dpi, GFP
  TI50 (TC50/IC50): 29.43
HAdV-C2-dE3B-GFP [1]; HAdV-C2-dE3B-GFP in A549, 4 dpi, Hexon
  TI50 (TC50/IC50): 29.87
HAdV-C2-dE3B-GFP [1]; A549, HAdV-C2-dE3B-GFP in A549, fixation 3 dpi (72 hpi), read-out GFP, plaque numbers
  pEC50: 6.66
HAdV-C2-dE3B-GFP [1]; A549, HAdV-C2-dE3B-GFP in A549, fixation 4 dpi, read-out GFP, plaque numbers
  pEC50: 6.36
HAdV-C2-dE3B-GFP [1]; A549, HAdV-C2-dE3B-GFP in A549, fixation 4 dpi, read-out Hexon, plaque numbers
  pEC50: 6.37
HAdV-C2-dE3B-GFP [1]; A549, read-out: EC50 of fluorescent-plaque formation, HAdV-C2-dE3B-GFP, A549 cells, 82 hpi, plaque numbers
  pEC50: 6.43
HAdV-C2-dE3B-GFP [1]; ratio TC50 (nuclei) / EC50 (plaques), A549 cells, 82 hpi
  median therapeutic index (TI50): 27.1
HAdV-B11
  TI50 (TC50/IC50): 0.53
HAdV-B11; listed as nelfinavir
  TI50 (TC50/IC50): < 1
HAdV-B11; Human adenovirus sp., HAdV-B11 in A549, fixation 3 dpi, read-out Hexon, plaque numbers
  pEC50: 4.54
HAdV-B14a; HAdV-B14a in A549, 3 dpi, Hexon
  TI50 (TC50/IC50): 38.22
HAdV-B14a; Human adenovirus sp., HAdV-B14a in A549, fixation 3 dpi, read-out Hexon, plaque numbers
  pEC50: 6.40
HAdV-B14; HAdV-B14 in A549, 3 dpi, Hexon
  TI50 (TC50/IC50): 14.22
HAdV-B14; Human adenovirus sp., HAdV-B14 in A549, fixation 3 dpi, read-out Hexon, plaque numbers
  pEC50: 6.08
HAdV-B16; HAdV-B16 in A549, 4 dpi, Hexon
  TI50 (TC50/IC50): 1.66
HAdV-B16; Human adenovirus sp., HAdV-B16 in A549, fixation 4 dpi, read-out Hexon, plaque numbers
  pEC50: 4.91
HAdV-B21a; HAdV-B21a in A549, 4 dpi, Hexon
  TI50 (TC50/IC50): 1.27
HAdV-B21a; Human adenovirus sp., HAdV-B21a in A549, fixation 4 dpi, read-out Hexon, plaque numbers
  pEC50: 4.79
HAdV-B34; HAdV-B34 in A549, 4 dpi, Hexon
  TI50 (TC50/IC50): 6.40
HAdV-B34; Human adenovirus sp., HAdV-B34 in A549, fixation 4 dpi, read-out Hexon, plaque numbers
  pEC50: 5.50
HAdV-B7
  TI50 (TC50/IC50): 0.75
HAdV-B7; listed as nelfinavir
  TI50 (TC50/IC50): < 1
HAdV-B7; Human adenovirus sp., HAdV-B7 in A549, fixation 4 dpi, read-out Hexon, plaque numbers
  pEC50: 4.77
HAdV-C1; HAdV-C1 in A549, 4 dpi, Hexon
  TI50 (TC50/IC50): 12.22
HAdV-C1; Human adenovirus sp., HAdV-C1 in A549, fixation 4 dpi, read-out Hexon, plaque numbers
  pEC50: 5.71
HAdV-C2-dE3B-GFP-dADP [2]; HAdV-C2-dE3B-GFP-dADP in A549, 4 dpi, GFP
  TI50 (TC50/IC50): 2.11
HAdV-C2-dE3B-GFP-dADP [2]; HAdV-C2-dE3B-GFP-dADP in A549, 4 dpi, GFP, listed as nelfinavir
  TI50 (TC50/IC50): 2.1
HAdV-C2-dE3B-GFP-dADP [2]; HAdV-C2-dE3B-GFP-dADP in A549, 5 dpi, GFP
  TI50 (TC50/IC50): 6.73
HAdV-C2-dE3B-GFP-dADP [2]; HAdV-C2-dE3B-GFP-dADP in A549, 5 dpi, Hexon
  TI50 (TC50/IC50): 5.20
HAdV-C2-dE3B-GFP-dADP [2]; A549, HAdV-C2-dE3B-GFP-dADP in A549, fixation 4 dpi (96 hpi), read-out GFP
  pEC50: 5.24
HAdV-C2-dE3B-GFP-dADP [2]; A549, HAdV-C2-dE3B-GFP-dADP in A549, fixation 5 dpi, read-out GFP
  pEC50: 5.65
HAdV-C2-dE3B-GFP-dADP [2]; A549, HAdV-C2-dE3B-GFP-dADP in A549, fixation 5 dpi, read-out Hexon
  pEC50: 5.54
HAdV-C5; HAdV-C5 in A549, 3 dpi, VI
  TI50 (TC50/IC50): 21.01
HAdV-C5; Human adenovirus sp., HAdV-C5 in A549, fixation 3 dpi, read-out VI, plaque numbers
  pEC50: 6.24
HAdV-C6; HAdV-C6 in A549, 3 dpi, Hexon
  TI50 (TC50/IC50): 35.14
HAdV-C6; Human adenovirus sp., HAdV-C6 in A549, fixation 3 dpi, read-out Hexon, plaque numbers
  pEC50: 6.22
HAdV-C2-dE3B-GFP-dADP [3]
  TI50 (TC50/IC50): 8.91
HAdV-C2-dE3B-GFP-dADP [3]; listed as nelfinavir
  TI50 (TC50/IC50): 8.9
HAdV-C2-dE3B-GFP-dADP [3]; Human adenovirus sp., HeLa
  pEC50: 5.33
HAdV-A31; 8 dpi, Hexon
  TI50 (TC50/IC50): 1.08
HAdV-A31; Human adenovirus sp., fixation 8 dpi, read-out Hexon, plaque numbers
  pEC50: 4.74
HAdV-C2-dE3B-GFP [4]; HAdV-C2-dE3B-GFP in HCE, 5 dpi, GFP
  TI50 (TC50/IC50): 54.04
HAdV-C2-dE3B-GFP [4]; Human adenovirus sp., HCE
  pEC50: 6.26
